Results as given in patent US20060223849A1, “Benzazole derivatives, compositions, and methods of use as beta-secretase inhibitors” (priority 2005, published 2006).

Test system: HEK293 cells stably expressing wildtype human APP695 protein (HEK-APPwt cells)
Test: Aβ cell based assay (Aβ1-40 secretion, ELISA)
Conditions: 1 hr room temperature then five-hour incubation at 37° C., Aβ1-40 ELISA, DAPT as 100% inhibition reference, read-out: EC50, reduction of Aβ1-40 secretion in the cell based assay
Method: Aβ Cell Based Assay Procedure
In the following assay, the proteolytic activity of BACE in cells exposed to varying concentrations of a compound of interest is measured by observing the amount of Aβ1-40 secreted from HEK293 cells (Human Embryonic Kidney epithelial cell line) stably expressing either wildtype human APP695 protein (HEK-APPwt cells).
HEK-APPwt cells were grown in high glucose DMEM (Dulbecco's Modified Eagles Medium) with 4500 mg glucose/L,L-glutamine, NaHCO3, pyrdoxin HCl, 10 mM HEPES (4-(2-hydroxyethyl)-1-piperazineethanesulfonic acid) (pH 7.4), 0.1 mM NEAA (Non-essential Amino Acids) (GIBCO Cat#11140-050), 10% fetal bovine serum and 250 μg/ml hygromycin in T-225 flasks at 37° C. with CO2 and humidity control.
Test compounds were initially prepared in DMSO and diluted with DMEM media containing 2% FBS (Fetal bovine serum) and 0.05% Tween20. Ten standard compound solutions were prepared having a range of concentrations. The standard compound solutions were used to determine the EC50 of the test compound. The range of concentrations chosen may depend on the compound's predicted potency.
To prepare the cells for the assay, a flask containing HEK-APPwt cells were trypsinized briefly (1 mL trypsin), and once the cells detached, 4 mL of 10% FBS-DMEM was added to the flask. The detached cells were centrifuged at 900 rpm for 5 min to form a pellet.
The HEK-APPwt cell pellet was re-suspended with 10 mL DMEM media containing 2% FBS. 80 μL of the cell suspension was added to each well of a 96-well cell culture plate to give 100,000 cells/well. 10 μL of a standard compound solution was added to each well of the 96-well cell culture plate followed by 10 μL of Alamar blue solution. The cells were incubated at room temperature for 1 hr, followed by a five-hour incubation in the CO2 incubator at 37° C.
At the end of the incubation, the plates were removed from incubator, and the supernatant was collected. Aβ1-40 concentration in the medium was measured by using a commercial Aβ1-40 ELISA kit (IBL, Japan). Briefly, the ELISA plates were coated with anti-human Aβ35-40 mouse IgG monoclonal antibody. A horseradish peroxidase enzyme conjugated anti-human Aβ11-28 mouse IgG monoclone antibody was used for detection. The cell culture supernatant was diluted 1:4 fold with (EIA buffer+Protease inhibitor (buffer containing Protease Inhibitor (1 mL PI/30 mL buffer). A 100 μL aliquot of the diluted supernatant was added to each well of the ELISA plate and incubated for 6 hrs at 4° C. The ELISA plate was washed 8 times with phosphate buffered saline (PBS) containing 0.05% Tween 20.
A 100 μL of detection antibody was then added and incubated for 1 hour at 4° C. The plate was washed 8 times with PBS buffer containing 0.05% Tween 20 followed by addition of 100 μL of the substrate with the chromogen tetramethyl benzidine (TMB). The plate was incubated in the dark at room temperature for about 30 min and a stop solution (1N H2SO4) was added.
The intensity of the color developed was measured at 450 nm. The optical density at 450 nm (OD450) is proportional to the concentration of human Aβ1-40 secreted by the cell. As a reference, N—[N-(3,5-difluorophenacetyl-L-alanyl)]-S-phenylglycine t-butyl ester (DAPT, a γ-secretase inhibitor) was used to indicate 100% inhibition of BACE activity. Thus, the assay measures the ability of a compound of interest to reduce Aβ1-40 secretion. Compound potency was reported as the EC50 by calculating the percent inhibition at all concentration levels and the data were fit with non-linear curve fitting algorithm using in GraphPad Prism.

SMILES: CCS(=O)(=O)c1cc(C(=O)Nc2ncc[nH]2)c2[nH]c(NC(=O)c3cc4ccccc4cn3)nc2c1 [Example 491, isoquinoline-3-carboxylic acid [5-ethanesulfonyl-7-(1H-imidazol-2-ylcarbamoyl)-1H-benzoimidazol-2-yl]-amide]
- EC50: ≤ 2000 nM
